Molecular target: MAGL (Homo sapiens (Human), UniProt Q99685)
Experiment: In vitro competitive activity-based protein profiling (human prefrontal cortex membrane fractions, FP-Rh probe), MAGL band
Details: read-out: MAGL IC50 (μM) (human); human prefrontal cortex membrane fractions

Chain of MAGL (Q99685 whole entry): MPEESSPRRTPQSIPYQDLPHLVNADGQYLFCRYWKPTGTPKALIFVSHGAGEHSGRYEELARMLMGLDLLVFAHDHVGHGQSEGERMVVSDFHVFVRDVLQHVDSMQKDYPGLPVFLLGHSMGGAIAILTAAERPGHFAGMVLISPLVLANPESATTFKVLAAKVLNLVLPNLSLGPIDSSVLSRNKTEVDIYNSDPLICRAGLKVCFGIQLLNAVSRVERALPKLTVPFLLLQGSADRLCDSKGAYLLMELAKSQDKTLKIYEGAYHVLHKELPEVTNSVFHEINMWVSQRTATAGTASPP

IC50, < 0.1 µM:
C[C@H]1CN(Cc2cc(F)cc(Oc3ccc(Cl)cc3)c2)CCN1C(=O)n1ccc(C(=O)O)n1 [Example 347, (S)-1-(4-(3-(4-chlorophenoxy)-5-fluorobenzyl)-2-methylpiperazine-1-carbonyl)-1H-pyrazole-3-carboxylic acid]
C[C@@H]1CN(Cc2cc(F)cc(Oc3ccc(Cl)cc3)c2)CCN1C(=O)n1ccc(C(=O)O)n1 [Example 348, (R)-1-(4-(3-(4-chlorophenoxy)-5-fluorobenzyl)-2-methylpiperazine-1-carbonyl)-1H-pyrazole-3-carboxylic acid]
C[C@H]1CN(Cc2cc(F)cc(Oc3ccccc3Cl)c2)CCN1C(=O)n1ccc(C(=O)O)n1 [Example 349, (S)-1-(4-(3-(2-chlorophenoxy)-5-fluorobenzyl)-2-methylpiperazine-1-carbonyl)-1H-pyrazole-3-carboxylic acid]
C[C@@H]1CN(Cc2ccc(-c3ccccc3)cc2C(F)(F)F)CCN1C(=O)n1ccc(C(=O)O)n1 [Example 351, (R)-1-(2-methyl-4-((3-(trifluoromethyl)-[1,1′-biphenyl]-4-yl)methyl)-piperazine-1-carbonyl)-1H-pyrazole-3-carboxylic acid]
O=C(O)c1ccn(C(=O)N2CCN(Cc3cccc(Oc4cnccc4C(F)(F)F)c3)CC2)n1 [Example 352, 1-(4-(3-((4-(trifluoromethyl)-pyridin-3-yl)oxy)-benzyl)-piperazine-1-carbonyl)-1H-pyrazole-3-carboxylic acid]
O=C(O)c1ccn(C(=O)N2CCN(Cc3cccc(Oc4cccc(C(F)(F)F)n4)c3)CC2)n1 [Example 353, 1-(4-(3-((6-(trifluoromethyl)-pyridin-2-yl)oxy)benzyl)-piperazine-1-carbonyl)-1H-pyrazole-3-carboxylic acid]
O=C(O)c1ccn(C(=O)N2CCN(Cc3cccc(Oc4ccnc(C(F)(F)F)c4)c3)CC2)n1 [Example 355, 1-(4-(3-((2-(trifluoromethyl)-pyridin-4-yl)oxy)benzyl)-piperazine-1-carbonyl)-1H-pyrazole-3-carboxylic acid]
O=C(O)c1nn(C(=O)N2CC3CN(Cc4cc(Cl)cc(C(F)(F)F)c4)CC3C2)cc1Cl (stereo not shown) [Example 357, 4-chloro-1-(5-(3-chloro-5-(trifluoromethyl)-benzyl)-octahydropyrrolo-[3,4-c]pyrrole-2-carbonyl)-1H-pyrazole-3-carboxylic acid]
O=C(O)c1ccn(C(=O)N2CCC3(CCN(Cc4cccc(-c5ccccc5)c4Cl)C3)CC2)n1 [Example 358, 1-(2-((2-chloro-[1,1′-biphenyl]-3-yl)methyl)-2,8-diazaspiro[4.5]-decane-8-carbonyl)-1H-pyrazole-3-carboxylic acid]
C[C@@H]1CC[C@@H](C)N1c1cc(C(F)(F)F)ccc1CN1CCN(C(=O)n2ccc(C(=O)O)n2)CC1 [Example 359, 1-(4-(2-((2R,5R)-2,5-dimethylpyrrolidin-1-yl)-4-(trifluoromethyl)-benzyl)piperazine-1-carbonyl)-1H-pyrazole-3-carboxylic acid]
C[C@H]1CC[C@H](C)N1c1cc(C(F)(F)F)ccc1CN1CCN(C(=O)n2ccc(C(=O)O)n2)CC1 [Example 360, 1-(4-(2-((2S,5S)-2,5-dimethylpyrrolidin-1-yl)-4-(trifluoromethyl)-benzyl)piperazine-1-carbonyl)-1H-pyrazole-3-carboxylic acid]
O=C(O)c1nn(C(=O)N2CCN(Cc3ccc(N4CCCC4)cc3C(F)(F)F)CC2)cc1Cl [Example 368, 4-chloro-1-(4-(4-(pyrrolidin-1-yl)-2-(trifluoromethyl)-benzyl)piperazine-1-carbonyl)-1H-pyrazole-3-carboxylic acid]
O=C(O)c1ccn(C(=O)N2CCC3(CCN(Cc4cc(Cl)ccc4OC(F)(F)F)C3)CC2)n1 [Example 371, 1-(2-(5-chloro-2-(trifluoromethoxy)-benzyl)-2,8-diazaspiro[4.5]-decane-8-carbonyl)-1H-pyrazole-3-carboxylic acid]
C[C@H]1CN(Cc2cccc(Oc3cc(C(F)(F)F)ccn3)c2)CCN1C(=O)n1ccc(C(=O)O)n1 [Example 373, (S)-1-(2-methyl-4-(3-((4-(trifluoromethyl)-pyridin-2-yl)oxy)benzyl)-piperazine-1-carbonyl)-1H-pyrazole-3-carboxylic acid]
C[C@@H]1CN(Cc2cccc(Oc3cc(C(F)(F)F)ccn3)c2)CCN1C(=O)n1ccc(C(=O)O)n1 [Example 374, (R)-1-(2-methyl-4-(3-((4-(trifluoromethyl)-pyridin-2-yl)oxy)benzyl)-piperazine-1-carbonyl)-1H-pyrazole-3-carboxylic acid]
O=C(O)c1nn(C(=O)N2CCN(Cc3cc(F)cc(Oc4ccc(Cl)cc4)c3)CC2)cc1Cl [Example 378, 4-chloro-1-(4-(3-(4-chlorophenoxy)-5-fluorobenzyl)-piperazine-1-carbonyl)-1H-pyrazole-3-carboxylic acid]
O=C(O)c1ccn(C(=O)N2CCN(Cc3ccc(C(F)(F)F)cc3N3CC4CCC(C3)O4)CC2)n1 [Example 380, 1-(4-(2-(8-oxa-3-azabicyclo[3.2.1]-octan-3-yl)-4-(trifluoromethyl)-benzyl)piperazine-1-carbonyl)-1H-pyrazole-3-carboxylic acid]
CN(Cc1cc(N2CCCC2)cc(C(F)(F)F)c1)C1(C)CCN(C(=O)n2ccc(C(=O)O)n2)CC1 [Example 381, 1-(4-methyl-4-(methyl(3-(pyrrolidin-1-yl)-5-(trifluoromethyl)-benzyl)amino)-piperidine-1-carbonyl)-1H-pyrazole-3-carboxylic acid]
CN(Cc1cc(C(F)(F)F)ccc1N1CCCC1)C1(C)CCN(C(=O)n2ccc(C(=O)O)n2)CC1 [Example 384, 1-(4-methyl-4-(methyl(2-(pyrrolidin-1-yl)-5-(trifluoromethyl)-benzyl)amino)-piperidine-1-carbonyl)-1H-pyrazole-3-carboxylic acid]
CN(Cc1ccc(C(F)(F)F)c(N2CCCC2)c1)C1(C)CCN(C(=O)n2ccc(C(=O)O)n2)CC1 [Example 385, 1-(4-methyl-4-(methyl(3-(pyrrolidin-1-yl)-4-(trifluoromethyl)-benzyl)amino)-piperidine-1-carbonyl)-1H-pyrazole-3-carboxylic acid]
O=C(O)c1nn(C(=O)N2CCC3(CCN(Cc4cc(Cl)cc(C(F)(F)F)c4)C3)CC2)cc1Cl [Example 388, 4-chloro-1-(2-(3-chloro-5-(trifluoromethyl)-benzyl)-2,8-diazaspiro-[4.5]decane-8-carbonyl)-1H-pyrazole-3-carboxylic acid]
NC(=O)c1ccn(C(=O)N2CCC3(CCCN3C(=O)c3cc4ccc(C(F)(F)F)cc4s3)CC2)n1 [Example 389, 1-(1-(6-(trifluoromethyl)-benzo-[b]thiophene-2-carbonyl)-1,8-diazaspiro-[4.5]decane-8-carbonyl)-1H-pyrazole-3-carboxamide]
O=C(O)c1ccn(C(=O)N2CCC3(CCN(Cc4cc(N5CCCC5)ccc4C(F)(F)F)C3)CC2)n1 [Example 391, 1-(2-(5-(pyrrolidin-1-yl)-2-(trifluoromethyl)-benzyl)-2,8-diazaspiro[4.5]-decane-8-carbonyl)-1H-pyrazole-3-carboxylic acid]
NC(=O)c1ccn(C(=O)N2CC3CN(Cc4ccc(C5(O)CCOCC5)cc4C(F)(F)F)CC3C2)n1 (stereo not shown) [Example 396, 1-(5-(4-(4-hydroxytetrahydro-2H-pymn-4-yl)-2-(trifluoromethyl)-benzyl)-octahydropyrrolo-[3,4-c]pyrrole-2-carbonyl)-1H-pyrazole-3-carboxamide]
CN(Cc1ccc(C(F)(F)F)cc1N1CCCCC1)C1(C)CCN(C(=O)n2ccc(C(=O)O)n2)CC1 [Example 397, 1-(4-methyl-4-(methyl(2-(piperidin-1-yl)-4-(trifluoromethyl)-benzyl)amino)-piperidine-1-carbonyl)-1H-pyrazole-3-carboxylic acid]
Cc1cn(C(=O)N2CCC(C)(N(C)Cc3ccc(C(F)(F)F)cc3N3CCCC3)CC2)nc1C(=O)O [Example 398]
O=C(O)c1nn(C(=O)N2CCN(Cc3cccc(Oc4cc(C(F)(F)F)ccn4)c3)CC2)cc1Cl [Example 399, 4-chloro-1-(4-(3-((4-(trifluoromethyl)-pyridin-2-yl)oxy)benzyl)piperazine-1-carbonyl)-1H-pyrazole-3-carboxylic acid]
O=C(O)c1nn(C(=O)N2CCN(Cc3cc(F)cc(Oc4ccc(Cl)cc4)c3)CC2)cc1C(F)(F)F [Example 408, 1-(4-(3-(4-chlorophenoxy)-5-fluorobenzyl)-piperazine-1-carbonyl)-4-(trifluoromethyl)-1H-pyrazole-3-carboxylic acid]
O=C(O)c1nn(C(=O)N2CCN(Cc3cccc(Oc4cc(C(F)(F)F)ccn4)c3)CC2)cc1C(F)(F)F [Example 414, 4-(trifluoromethyl)-1-(4-(3-((4-(trifluoromethyl)-pyridin-2-yl)oxy)benzyl)-piperazine-1-carbonyl)-1H-pyrazole-3-carboxylic acid]
O=C(O)c1ccn(C(=O)N2CCC3(CCCN3Cc3ccc(C(F)(F)F)cc3N3CC4CCC(C3)O4)CC2)n1 [Example 416, 1-(1-(2-(8-oxa-3-azabicyclo[3.2.1]-octan-3-yl)-4-(trifluoromethyl)-benzyl)-1,8-diazaspiro[4.5]-decane-8-carbonyl)-1H-pyrazole-3-carboxylic acid]
CNC(=O)c1ccn(C(=O)N2CC3CN(Cc4ccc(Cl)cc4)CC3C2)n1 (stereo not shown) [Example 424, 1-(5-(4-chlorobenzyl)-octahydropyrrolo-[3,4-c]pyrrole-2-carbonyl)-N-methyl-1H-pyrazole-3-carboxamide]
